Data set [1] can be described thus: Metabolic stability in dog microsomes. Particulars: for % remaining at 45 min: Dog microsome; for metabolic stability compared with Compound 9 (Langlet et al.): dog and/or human microsomes, in words.
Data set [2] in a line: Metabolic stability in human microsomes. Particulars: for % remaining at 45 min: Human microsome.
The target in a further data set is T1, human FOXO1 (Homo sapiens, UniProt Q12778).
T1 construct: expressed in transfected cells; host or cells: HEK293
T1 sequence (Q12778 whole entry): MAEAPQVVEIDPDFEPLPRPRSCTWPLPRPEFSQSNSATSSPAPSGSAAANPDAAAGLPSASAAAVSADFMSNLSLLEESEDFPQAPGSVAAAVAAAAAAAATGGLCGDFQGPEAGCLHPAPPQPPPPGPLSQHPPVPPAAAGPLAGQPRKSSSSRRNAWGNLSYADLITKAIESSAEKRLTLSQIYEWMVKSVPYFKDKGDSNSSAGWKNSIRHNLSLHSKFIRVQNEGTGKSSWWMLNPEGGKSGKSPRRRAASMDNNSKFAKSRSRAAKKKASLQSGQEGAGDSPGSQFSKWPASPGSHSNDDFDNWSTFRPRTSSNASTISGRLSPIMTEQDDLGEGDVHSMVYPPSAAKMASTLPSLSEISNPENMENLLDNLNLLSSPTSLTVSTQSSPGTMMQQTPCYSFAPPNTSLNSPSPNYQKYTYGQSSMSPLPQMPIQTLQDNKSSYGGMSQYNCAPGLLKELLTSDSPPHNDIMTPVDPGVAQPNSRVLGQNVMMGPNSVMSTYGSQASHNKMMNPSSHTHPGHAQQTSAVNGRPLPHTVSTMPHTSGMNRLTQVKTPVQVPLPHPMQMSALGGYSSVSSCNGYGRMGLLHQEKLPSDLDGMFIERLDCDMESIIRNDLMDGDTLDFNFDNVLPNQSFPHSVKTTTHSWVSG
The data set is described as follows: FOXO1 transcriptional reporter assay (insulin response element firefly luciferase / Renilla) in HEK293 cells. It is filed as cell-based. Particulars: HEK293 cells transfected with human FOXO1, 24 hours, class combines IC50 and maximal inhibition; read-out: IC50 (active range). On the procedure: The activities of FOXO1 inhibitors were determined by a transcriptional reporter assay. HEK293 cells were plated onto 96-well plates with moat at 20000 cells per well in Eagle's Minimum Essential Medium (EMEM) containing 1% fetal bovine serum, and incubated overnight at 37° C. and 5% CO2. […] Compounds were then added at varying final concentrations ranging from 50 μM to 1 nM, with final DMSO concentration of 0.5% in each well. Duplicate wells were included for each treatment condition. Cells were incubated for 24 hours at 37° C. and 5% CO2. Luciferase activities in each well were measured using Dual-Glo Luciferase Assay System (Promega) according to manufacturer's protocol and a plate reader suitable for luminescence detection. Firefly luciferase activity was divided by Renilla luciferase activity to calculate a ratio for each well. The ratio in wells containing cells transfected with all 3 plasmids listed above and receiving only DMSO without compound addition was set to 100%. The ratio in wells containing cells transfected with plasmids (1), (3), and 5 ng of pcDNA3.1 containing the open reading frame of red fluorescent protein (instead of human FOXO1) and treated with DMSO only was set to 0%. The ratio in each well receiving compound treatment was normalized and expressed as a percentage. Data were fit by 4-parameter logistic regression to determine IC50 and maximal inhibition values. Each compound was tested in a minimum of 2 independent experiments.

The nature of data set [3]: Metabolic stability in human hepatocytes. Particulars: for % remaining at 90 min: Human hepatocyte, 0.3 μM; for hepatocyte CLint at 1.5 h, 0.3 µM: human, hepatocytes (cryopreserved).
Experimental: An in vitro system comprising human Hepatocytes was employed. The incubation conditions and sampling time point of test article and positive control were as follows. Test articles (0.3 μM) and positive controls (verapamil) were incubated in a 0.2mL volume in 96-well format. Stock solutions were received at 10 mM in DMSO and the Final DMSO % in incubation was 0.01%. […] Incubation plates were shaken on an automated orbital shaker at 600 rpm. Incubation time points were: 0, 15, 30, 60, 90 minutes.
Following this pre-incubation period, the test compound (DMSO stock solution) was added to the incubation plate, which was mixed to initiate the incubation. The reaction plate was sampled (20 μL aliquot) at the pre-determined incubation time points, the sample quenched with 80 μL of Stop solution with internal standard (Acetonitrile with 0.1% (v/v) formic acid containing 100 nM labetalol, 20 nM imipramine, and 200 nM diclofenac) and the samples were mixed well. After quenching the reaction, the reaction mixture was centrifuged and the samples were submitted for LC-MS/MS analysis. Depletion rate (kdep, min^−1) and % compound remaining was calculated by peak area ratio (PAR) with internal standard at each time point relative to time 0 min. The estimation of Clint(Unscaled) (in μl/min/10^6 cells) was performed with the following equation:
Data set [4] deals with T2, acetylcholinesterase (AChE) (Homo sapiens, UniProt P22303).
T2 construct: host or cells: CHO cells
T2 sequence (P22303 32-614): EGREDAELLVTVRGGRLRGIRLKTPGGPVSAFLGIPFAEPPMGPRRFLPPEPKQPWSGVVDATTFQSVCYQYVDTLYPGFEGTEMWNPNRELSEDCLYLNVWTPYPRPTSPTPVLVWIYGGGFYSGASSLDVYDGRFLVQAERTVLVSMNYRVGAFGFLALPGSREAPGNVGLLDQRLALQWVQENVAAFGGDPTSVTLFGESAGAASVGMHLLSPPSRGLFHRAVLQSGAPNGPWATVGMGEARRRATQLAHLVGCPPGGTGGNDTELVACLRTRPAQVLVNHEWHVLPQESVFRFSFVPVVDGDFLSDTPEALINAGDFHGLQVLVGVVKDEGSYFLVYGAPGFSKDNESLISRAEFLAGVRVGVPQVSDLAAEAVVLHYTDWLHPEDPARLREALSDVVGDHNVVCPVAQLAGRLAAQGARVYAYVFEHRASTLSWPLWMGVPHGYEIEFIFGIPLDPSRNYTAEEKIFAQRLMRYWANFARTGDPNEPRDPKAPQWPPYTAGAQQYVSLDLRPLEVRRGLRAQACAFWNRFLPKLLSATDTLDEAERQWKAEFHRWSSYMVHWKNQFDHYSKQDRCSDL
As to the kind of experiment: biochemical. The format is biochemical. On the procedure:
The protein source was Human (recombinant) Expressed in CHO cells. The enzymatic activity was studied. The method employed was the detection of conversion of acetylthiocholine to thiocholine using DTNB. The substrate employed was Acetylthiocholine.
Enzyme and test compound were pre-incubated for 15 minutes at room temp before substrate addition. Acetylthiocholine and DTNB (5,5′-dithiobis-(2-nitrobenzoic acid)) were added and incubated at room temperature for 30 minutes. Signal was detected by measuring absorbance at 405 nm.
Percentage inhibition was calculated using the following formula: […]

A short description of data set [5]: Metabolic stability in mouse microsomes. It is filed as in vitro ADME. Particulars: for microsomal CLint at 0.75 h, 0.3 μM: CD-1, liver microsomes, pH 7.4, in vitro intrinsic clearance; for microsomal CLint at 0.75 h, 0.3 μM / % remaining at 45 min: Mouse microsome, 0.3 μM; for metabolic stability compared with Compound 10 (Langlet et al.): mouse microsomes, and/or human hepatocytes, in words. On the technique in general: Liver microsomes are a subcellular fraction often used to study metabolism.

Where [6] appears, read: selectivity studies, Table 4, read-out: AChE IC50.
Setting [7] is: Human recombinant AChE expressed in CHO cells, read-out: AChE Inhibitor IC50.

We go through 15 compounds from US20220185797A1, “SELECTIVE FOXO INHIBITORS FOR TREATMENT OF DIABETES AND OTHER DISORDERS RELATED TO IMPAIRED PANCREATIC FUNCTION” (THE TRUSTEES OF COLUMBIA UNIVERSITYIN THE CITY OF NEW YORK, priority 2019, published 2022).

Where two headings read alike, the source gives them in different places. Marks after values point to notes of the source that are not given here.

Consider `COc1ccc(C(=O)Nc2cc(-c3nc4ccccc4[nH]3)n[nH]2)cc1Cl` [Compound 1, reference compound], for which the results for the “% remaining at 45 min” value in data set [1] and in data set [2] were 12% and 3.2%, respectively. Further, the microsomal CLint at 0.75 h, 0.3 μM in data set [1] (dog, microsomes, pH 7.4) came to 185 µL/min/mg; in data set [2] (human, microsomes, pH 7.4) it was 306 µL/min/mg.
As to `COc1ccc(C(=O)Nc2cc(-c3nc4c(F)cccc4[nH]3)[nH]n2)cc1Cl` [Compound 73], the figures for the “% remaining at 45 min” value in data set [1] and in data set [2] were 31% and 13%, respectively. The “metabolic stability compared with Compound 9 (Langlet et al.)” value in data set [1] was “significantly more stable”. Further, the microsomal CLint at 0.75 h, 0.3 μM in data set [1] (dog, microsomes, pH 7.4) was 104 µL/min/mg; in data set [2] (human, microsomes, pH 7.4), 184 µL/min/mg.
In the same order, the values of `COc1cc(C(=O)Nc2cc(-c3nc4ccccc4[nH]3)n[nH]2)ccc1Cl` [Compound 20] are 53%, 52%, “significantly more stable”, 58 µL/min/mg and 57 µL/min/mg.
On to `COc1ccc(C(=O)Nc2cc(-c3nc4cc(OC(F)(F)F)ccc4[nH]3)[nH]n2)cc1Cl` [Compound 84], for which the half-maximal inhibitory concentration (IC50) at human FOXO1 was 1000 to 10000 nM.
The same measure, in the same setting: in the case of `Nc1cc(-c2nc3ccccc3[nH]2)n[nH]1` [Compound 32] it was more than 10000 nM; in that of `COc1ccc(C(=O)Nc2cc(-c3nc4cc(C(F)(F)F)ccc4[nH]3)[nH]n2)cc1Cl` [Compound 86], less than 1000 nM.
Take `CN1CCN(c2ccc(C(=O)Nc3cc(-c4nc5ccccc5[nH]4)n[nH]3)cc2)CC1` [Compound 2, reference compound]: in data set [3], the “% remaining at 90 min” value came to 22% and the hepatocyte CLint at 1.5 h, 0.3 µM is 18 µL/min/1e6 cells. The IC50 at human FOXO1 is less than 50 nM. For the same compound, the IC50 in data set [4] (setting [6]) amounted to 1710 nM. In data set [5], the microsomal CLint at 0.75 h, 0.3 μM came out at 206 µL/min/mg and the “% remaining at 45 min” value was found to be 10%.
Turning to `COc1ccc(C(=O)N(C)c2cc(-c3nc4ccccc4[nH]3)n[nH]2)cc1Cl` [Compound 37], the concentration for half-maximal inhibition (IC50) in data set [4] (setting [6]) was more than 10000 nM.
As for `O=C(Nc1cc(-c2nc3ccccc3[nH]2)[nH]n1)c1ccc(N2CCOCC2)cc1` [Compound 67], the IC50 in data set [4] (setting [7]) was more than 10000 nM. In addition, in data set [5], the intrinsic metabolic clearance (microsomal CLint) at 0.75 h, 0.3 μM was found to be 52 µL/min/mg; the “% remaining at 45 min” value was determined as 58%; the “metabolic stability compared with Compound 10 (Langlet et al.)” value is given as “significantly more stable”.
As for `COc1ccc(C(=O)Nc2cc(-c3nc4c(C(F)(F)F)cccc4[nH]3)[nH]n2)cc1Cl` [Compound 85], the IC50 on human FOXO1 was less than 1000 nM.
On to `CC(=O)Nc1cc(-c2nc3ccccc3[nH]2)n[nH]1` [Compound 29], for which the IC50 at human FOXO1 is more than 10000 nM.
With `O=C(Nc1cc(-c2nc3ccccc3[nH]2)n[nH]1)c1ccc(O)c(Cl)c1` [Compound 24], the “% remaining at 45 min” value in data set [1] is recorded as 88%; in data set [2], 93%. In data set [1], the “metabolic stability compared with Compound 9 (Langlet et al.)” value was “significantly more stable”. Moreover, the microsomal CLint at 0.3 μM in data set [1] (dog, microsomes, pH 7.4) was less than 20 µL/min/mg; in data set [2] (human, microsomes, pH 7.4) it was less than 20 µL/min/mg.
For the compound `CN1CCC(c2ccc(C(=O)Nc3cc(-c4nc5ccccc5[nH]4)n[nH]3)cc2)CC1` [Compound 42], the IC50 at human FOXO1 was less than 1000 nM.
`O=C(Nc1cc(-c2nc3ccccc3[nH]2)n[nH]1)c1ccc(N2CCNCC2)cc1` [Compound 36]: in data set [3], the “% remaining at 90 min” value is given as 110 * % and the hepatocyte CLint at 1.5 h, 0.3 µM is 2.6 µL/min/1e6 cells. The IC50 in data set [4] (setting [7]) is more than 10000 nM. Further, in data set [5], the microsomal CLint at 0.75 h, 0.3 μM was determined as 41 µL/min/mg; the “% remaining at 45 min” value was found to be 68%; the “metabolic stability compared with Compound 10 (Langlet et al.)” value was “significantly more stable”.
Turning to `CC(=O)N1CCN(c2ccc(C(=O)Nc3cc(-c4nc5ccccc5[nH]4)n[nH]3)cc2)CC1` [Compound 35], on human FOXO1, the IC50 was less than 1000 nM. In data set [5], the intrinsic clearance (microsomal CLint) at 0.75 h, 0.3 μM is 70 µL/min/mg; the “% remaining at 45 min” value was 44%; the “metabolic stability compared with Compound 10 (Langlet et al.)” value is “significantly more stable”.

The microsomal CLint is the capacity of the preparation to metabolise the compound, expressed as a volume cleared per time. Low readings indicate greater metabolic stability, high ones faster metabolism. As usually defined, the IC50 is the midpoint of a concentration-inhibition curve. Broadly, the hepatocyte CLint is the capacity of the preparation to metabolise the compound, expressed as a volume cleared per time. Low values mean slow turnover, high ones rapid turnover.
